pIC50: −log10 of the molar value.
Assays:
[1] = target: T1, CYP2C19 (Homo sapiens, UniProt P33261); assay: CYP inhibition assay, human liver microsomes, substrate S-mephenytoin; type: in vitro ADME; details: human liver microsomes, 10 min incubation, LC-MS/MS; read-out: CYP Inhibition Activity (IC50/nM) CYP2C19
T1 construct: from tissue; host or cells: human liver microsomes
Summary of the method: (§1)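 Test compound or positive inhibitor was combined with a pooled substrate mix and pre-incubated 20 min at 37 °C; reactions were started with pre-warmed NADPH and run 10 min at 37 °C. Cold acetonitrile stopped them, and supernatants were analysed by LC-MS/MS to derive % inhibition and IC50.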

[2] = target: T2, CYP2D6 (Homo sapiens, UniProt P10635); assay: biochemical; type: in vitro ADME
T2 construct: from tissue; host or cells: human liver microsomes
T2 sequence (P10635 whole entry): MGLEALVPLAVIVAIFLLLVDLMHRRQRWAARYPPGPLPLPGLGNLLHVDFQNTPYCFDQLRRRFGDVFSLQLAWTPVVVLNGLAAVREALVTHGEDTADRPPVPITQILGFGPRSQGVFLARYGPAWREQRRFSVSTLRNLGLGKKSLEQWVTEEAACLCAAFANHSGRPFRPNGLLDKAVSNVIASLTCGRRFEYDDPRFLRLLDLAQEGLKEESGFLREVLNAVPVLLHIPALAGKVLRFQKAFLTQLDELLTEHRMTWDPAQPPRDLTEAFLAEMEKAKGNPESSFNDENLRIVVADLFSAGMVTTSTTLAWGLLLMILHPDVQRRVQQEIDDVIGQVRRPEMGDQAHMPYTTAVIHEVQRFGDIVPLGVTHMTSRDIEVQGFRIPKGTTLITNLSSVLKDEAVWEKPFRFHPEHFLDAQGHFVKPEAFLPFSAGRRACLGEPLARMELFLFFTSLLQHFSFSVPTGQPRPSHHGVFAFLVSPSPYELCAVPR
Summary of the method: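 Human liver microsomes (0.253 mg/mL working stock) pre-incubated with compound and substrate pool at 37° C for 20 min. Reaction started with NADPH and run 10 min at 37° C, stopped with cold ACN. Metabolite analysed by LC-MS/MS; % inhibition and IC50 calculated versus inhibitor-free control.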

[3] = target: T3, CYP2C9 (Homo sapiens, UniProt P11712); assay: CYP inhibition assay, human liver microsomes, substrate diclofenac; type: in vitro ADME; details: human liver microsomes, 10 min incubation, LC-MS/MS; read-out: CYP Inhibition Activity (IC50/nM) CYP2C9
T3 construct: from tissue; host or cells: human liver microsomes
T3 sequence (P11712 whole entry): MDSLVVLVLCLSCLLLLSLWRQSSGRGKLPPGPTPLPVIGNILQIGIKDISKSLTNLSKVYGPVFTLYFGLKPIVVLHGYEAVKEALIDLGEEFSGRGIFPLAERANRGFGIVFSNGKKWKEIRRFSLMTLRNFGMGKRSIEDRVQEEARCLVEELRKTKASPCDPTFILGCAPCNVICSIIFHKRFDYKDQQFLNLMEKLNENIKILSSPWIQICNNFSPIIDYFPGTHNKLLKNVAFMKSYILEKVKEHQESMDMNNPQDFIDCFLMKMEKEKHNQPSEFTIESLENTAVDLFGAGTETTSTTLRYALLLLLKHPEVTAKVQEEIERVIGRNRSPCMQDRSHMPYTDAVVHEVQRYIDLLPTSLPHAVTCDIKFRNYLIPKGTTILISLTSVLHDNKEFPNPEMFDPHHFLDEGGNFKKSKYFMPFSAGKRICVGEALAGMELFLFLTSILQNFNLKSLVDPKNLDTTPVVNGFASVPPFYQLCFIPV
Summary of the method: as §1

[4] = target: T4, CYP3A4 (Homo sapiens, UniProt P08684); assay: CYP inhibition assay, human liver microsomes, substrate midazolam; type: in vitro ADME; details: human liver microsomes, 10 min incubation, LC-MS/MS; read-out: CYP Inhibition Activity (IC50/nM) CYP3A4
T4 construct: from tissue; host or cells: human liver microsomes
T4 sequence (P08684 whole entry): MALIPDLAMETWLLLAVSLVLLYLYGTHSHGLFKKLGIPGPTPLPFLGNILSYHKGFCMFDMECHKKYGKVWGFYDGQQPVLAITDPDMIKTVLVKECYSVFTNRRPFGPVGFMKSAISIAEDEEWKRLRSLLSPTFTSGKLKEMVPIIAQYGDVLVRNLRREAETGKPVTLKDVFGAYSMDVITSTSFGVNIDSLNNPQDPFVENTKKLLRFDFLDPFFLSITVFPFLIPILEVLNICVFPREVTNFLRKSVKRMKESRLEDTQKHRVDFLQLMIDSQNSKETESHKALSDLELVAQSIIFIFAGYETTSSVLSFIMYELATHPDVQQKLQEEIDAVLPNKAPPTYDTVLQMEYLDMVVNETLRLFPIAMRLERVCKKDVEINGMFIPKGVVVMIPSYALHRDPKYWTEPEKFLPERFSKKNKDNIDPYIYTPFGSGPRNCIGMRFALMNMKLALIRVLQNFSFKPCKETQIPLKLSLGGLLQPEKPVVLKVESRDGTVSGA
Summary of the method: as §1

[5] = target: SRPK1 (Homo sapiens, UniProt Q96SB4); assay: In vitro SRPK1 assay (Kinase-Glo); type: biochemical
SRPK1, sequence (Q96SB4 whole entry, species assumed): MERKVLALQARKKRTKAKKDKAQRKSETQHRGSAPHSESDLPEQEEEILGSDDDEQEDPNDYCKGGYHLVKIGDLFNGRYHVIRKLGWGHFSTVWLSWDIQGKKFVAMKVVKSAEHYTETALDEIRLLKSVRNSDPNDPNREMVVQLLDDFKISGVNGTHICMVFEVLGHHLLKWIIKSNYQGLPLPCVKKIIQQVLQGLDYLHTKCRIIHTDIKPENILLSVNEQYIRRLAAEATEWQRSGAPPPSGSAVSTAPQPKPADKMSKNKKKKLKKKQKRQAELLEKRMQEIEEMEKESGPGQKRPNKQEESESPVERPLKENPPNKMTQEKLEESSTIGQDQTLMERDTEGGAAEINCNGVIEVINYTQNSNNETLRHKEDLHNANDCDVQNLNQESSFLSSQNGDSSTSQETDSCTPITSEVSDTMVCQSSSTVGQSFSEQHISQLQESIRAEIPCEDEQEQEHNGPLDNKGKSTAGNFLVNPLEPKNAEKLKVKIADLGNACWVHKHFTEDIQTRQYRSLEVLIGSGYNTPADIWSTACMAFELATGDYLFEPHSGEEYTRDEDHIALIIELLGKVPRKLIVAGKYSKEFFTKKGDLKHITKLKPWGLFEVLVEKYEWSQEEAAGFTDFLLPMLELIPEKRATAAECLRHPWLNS

[6] = target: T5, CYP1A2 (Homo sapiens, UniProt P05177); assay: CYP inhibition assay, human liver microsomes, substrate tacrine; type: in vitro ADME; details: human liver microsomes, 10 min incubation, LC-MS/MS; read-out: CYP Inhibition Activity (IC50/nM) CYP1A2
T5 construct: from tissue; host or cells: human liver microsomes
T5 sequence (P05177 1-516): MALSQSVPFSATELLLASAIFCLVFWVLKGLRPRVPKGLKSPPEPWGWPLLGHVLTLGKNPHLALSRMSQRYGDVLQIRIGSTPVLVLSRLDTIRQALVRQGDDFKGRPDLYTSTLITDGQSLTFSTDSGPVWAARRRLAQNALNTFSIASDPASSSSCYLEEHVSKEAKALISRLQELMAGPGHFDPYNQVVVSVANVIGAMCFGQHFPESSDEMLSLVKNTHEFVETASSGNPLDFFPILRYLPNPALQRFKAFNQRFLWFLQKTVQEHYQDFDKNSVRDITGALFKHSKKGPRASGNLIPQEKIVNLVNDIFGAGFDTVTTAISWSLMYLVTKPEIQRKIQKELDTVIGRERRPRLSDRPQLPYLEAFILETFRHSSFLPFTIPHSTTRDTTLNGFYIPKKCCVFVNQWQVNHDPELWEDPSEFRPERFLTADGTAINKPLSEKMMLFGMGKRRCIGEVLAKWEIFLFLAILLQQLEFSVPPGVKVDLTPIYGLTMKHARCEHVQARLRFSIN
Summary of the method: as §1

T1 sequence (P33261 whole entry): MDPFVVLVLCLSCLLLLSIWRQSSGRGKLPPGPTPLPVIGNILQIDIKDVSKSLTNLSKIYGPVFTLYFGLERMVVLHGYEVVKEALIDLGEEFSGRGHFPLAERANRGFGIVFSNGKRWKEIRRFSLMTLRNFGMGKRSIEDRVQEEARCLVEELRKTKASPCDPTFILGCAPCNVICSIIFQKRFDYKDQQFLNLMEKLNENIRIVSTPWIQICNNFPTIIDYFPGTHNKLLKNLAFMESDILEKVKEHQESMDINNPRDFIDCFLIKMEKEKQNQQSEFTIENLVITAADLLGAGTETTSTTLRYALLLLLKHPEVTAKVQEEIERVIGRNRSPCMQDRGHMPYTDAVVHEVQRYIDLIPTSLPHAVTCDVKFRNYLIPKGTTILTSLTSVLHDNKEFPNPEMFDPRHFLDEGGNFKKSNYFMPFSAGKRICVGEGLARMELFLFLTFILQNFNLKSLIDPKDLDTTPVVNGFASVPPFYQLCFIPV

Compound	IC50 [1] [nM]	pIC50 [2]	IC50 [3] [nM]	IC50 [4] [nM]	IC50 [5] [nM]	IC50 [6] [nM]
Cc1ccc(N2CCC(C)(O)CC2)c(NC(=O)c2ccc(-c3ccncc3)o2)c1 [Example 8, N-(2-(4-hydroxy-4-methylpiperidin-1-yl)-5-methylphenyl)-5-(pyridin-4-yl)furan-2-carboxamide]	2900	5.21	1100	1700	14.4	11100
CC1(O)CCCN(c2ccc(C(F)(F)F)cc2NC(=O)c2ccc(C3CCOCC3)o2)CC1 (racemic) [Example 40, N-(2-(4-hydroxy-4-methylazepan-1-yl)-5-(trifluoromethyl)phenyl)-5-(tetrahydro-2H-pyran-4-yl)furan-2-carboxamide]	10400	4.57	8450	10900	1.6	> 30000
O=C(Nc1cc(Cl)ccc1N1CCCC(O)CC1)c1ccc(C2CCOCC2)o1 (racemic) [Example 48, N-(5-chloro-2-(4-hydroxyazepan-1-yl)phenyl)-5-(tetrahydro-2H-pyran-4-yl)furan-2-carboxamide]	6000	4.80	10300	21100	15	16800
CC1(O)CCN(c2ccc(C3CC3)cc2NC(=O)c2ccc(C3CCOCC3)o2)CC1 [Example 17, N-(5-cyclopropyl-2-(4-hydroxy-4-methylpiperidin-1-yl)phenyl)-5-(tetrahydro-2H-pyran-4-yl)furan-2-carboxamide]	9570	< 4.52	3770	15200	2	> 30000
CC1(O)CCCN(c2ccc(C(F)(F)F)cc2NC(=O)c2ccc(-c3ccncc3)o2)CC1 (racemic) [Example 37, N-(2-(4-hydroxy-4-methylazepan-1-yl)-5-(trifluoromethyl)phenyl)-5-(pyridin-4-yl)furan-2-carboxamide]	1230	6.62	610	960	17	24100
O=C(Nc1cc(C2CC2)ccc1N1CCC(O)(CC2CC2)CC1)c1ccc(C2CCOCC2)o1 [Example 71, N-(5-cyclopropyl-2-(4-(cyclopropylmethyl)-4-hydroxypiperidin-1-yl)phenyl)-5-(tetrahydro-2H-pyran-4-yl)furan-2-carboxamide]	2700	5.06	5420	4190	2.9	> 30000
CN(C)CC1(C)CCN(c2ccc(C(F)(F)F)cc2NC(=O)c2ccc(C3CCOCC3)o2)CC1 [Example 83, N-(2-(4-((dimethylamino)methyl)-4-methyl-piperidin-1-yl)-5-(trifluoromethyl)phenyl)-5-(tetrahydro-2H-pyran-4-yl)furan-2-carboxamide]	> 30000	5.49	24300	21000	3.2	> 30000
CC1(C(N)=O)CCN(c2ccc(C(F)(F)F)cc2NC(=O)c2ccc(-c3ccncc3)o2)CC1 [Example 72, 4-methyl-1-(2-(5-(pyridin-4-yl)furan-2-carboxamido)-4-(trifluoromethyl)phenyl)-piperidine-4-carboxamide]	7540	5.38	2360	2370	1.9	> 30000
Cc1ccc(N2CCC(O)CC2)c(NC(=O)c2ccc(C3CCOCC3)o2)c1 [Example 36, N-(2-(4-hydroxypiperidin-1-yl)-5-methylphenyl)-5-(tetrahydro-2H-pyran-4-yl)furan-2-carboxamide]	7500	4.67	4940	> 30000	3.7	6590
CC1(CN2CCOCC2)CCN(c2ccc(C(F)(F)F)cc2NC(=O)c2ccc(C3CCOCC3)o2)CC1 [Example 97, N-(2-(4-methyl-4-(morpholinomethyl)piperidin-1-yl)-5-(trifluoromethyl)phenyl)-5-(tetrahydro-2H-pyran-4-yl)furan-2-carboxamide]	2700	5.09	200	9400	6	> 30000
CC1(C(=O)N2CCCC2)CCN(c2ccc(C(F)(F)F)cc2NC(=O)c2ccc(C3CCOCC3)o2)CC1 [Example 88, N-(2-(4-methyl-4-(pyrrolidine-1-carbonyl)-piperidin-1-yl)-5-(trifluoromethyl)-phenyl)-5-(tetrahydro-2H-pyran-4-yl)furan-2-carboxamide]	4600	4.99	300	1000	11	> 30000
COc1ccc(N2CCC(C)(C(=O)N(C)C)CC2)c(NC(=O)c2ccc(C3CCOCC3)o2)c1 [Example 85, 1-(4-methoxy-2-(5-(tetrahydro-2H-pyran-4-yl)furan-2-carboxamido)phenyl)-N,N,4-trimethyl-piperidine-4-carboxamide]	21700	< 4.52	800	20700	43	> 30000
Cc1ccc(N2CCC(C)(O)CC2)c(NC(=O)c2ccc(C3CCOCC3)o2)c1 [Example 13, N-(2-(4-hydroxy-4-methylpiperidin-1-yl)-5-methylphenyl)-5-(tetrahydro-2H-pyran-4-yl)furan-2-carboxamide]	15100	< 4.52	7600	23200	17.4	> 30000

The remaining compounds from weak to strong by IC50 [1], led by results:

IC50 [1] [nM]	pIC50 [2]	IC50 [3] [nM]	IC50 [4] [nM]	IC50 [5] [nM]	IC50 [6] [nM]	Compound
25100	6.52	17200	23100	167	> 30000	Cc1ccc(N2CCC(C)(CN(C)C)CC2)c(NC(=O)c2ccc(C3CCOCC3)o2)c1 [Example 94, N-(2-(4-((dimethylamino)methyl)-4-methyl-piperidin-1-yl)-5-methylphenyl)-5-(tetrahydro-2H-pyran-4-yl)furan-2-carboxamide]
17800	6.40	> 30000	4500	263	> 30000	CNCC1(C)CCN(c2ccc(C(F)(F)F)cc2NC(=O)c2ccc(-c3ccncc3)o2)CC1 [Example 79, N-(2-(4-methyl-4-((methylamino)-methyl)piperidin-1-yl)-5-(trifluoromethyl)phenyl)-5-(pyridin-4-yl)furan-2-carboxamide]
7690	4.72	2970	10600	5.2	6270	COc1ccc(N2CCC(C)(O)CC2)c(NC(=O)c2ccc(C3CCOCC3)o2)c1 [Example 15, N-(2-(4-hydroxy-4-methylpiperidin-1-yl)-5-methoxyphenyl)-5-(tetrahydro-2H-pyran-4-yl)furan-2-carboxamide]
6140	5.15	6350	20900	9	> 30000	O=C(Nc1cc(C(F)(F)F)ccc1N1CCC(O)(C2CC2)CC1)c1ccc(C2CCOCC2)o1 [Example 21, N-(2-(4-cyclopropyl-4-hydroxypiperidin-1-yl)-5-(trifluoromethyl)-phenyl)-5-(tetrahydro-2H-pyran-4-yl)furan-2-carboxamide]
4910	4.80	5160	9800	54	> 30000	COC1(C)CCN(c2ccc(C(F)(F)F)cc2NC(=O)c2ccc(C3CCOCC3)o2)CC1 [Example 18, N-(2-(4-methoxy-4-methylpiperidin-1-yl)-5-(trifluoromethyl)-phenyl)-5-(tetrahydro-2H-pyran-4-yl)furan-2-carboxamide]
1180	5.82	1060	2130	8.7	6240	O=C(Nc1cc(C2CC2)ccc1N1CCCC(O)CC1)c1ccc(-c2ccncc2)o1 (racemic) [Example 46, N-(5-cyclopropyl-2-(4-hydroxyazepan-1-yl)phenyl)-5-(pyridin-4-yl)furan-2-carboxamide]

— US11420969B2 (Exonate Limited, priority 2017, dated 2022)
